Results taken from EP0121635A1, “3',5',-Diarabinosides, their preparation and their therapeutical application” (SYNTHELABO, priority 1982, dated 1984).

Assays:
[1] = system: tumeur ascitique d'Ehrlich; test: Development of Ehrlich ascites tumour in mice (survival); format: in vivo, Souris; details: for Nombre d'animaux sans tumeur au 28ème jour: day 28, controls 0/12 and 0/5; for Nombre d'animaux sans tumeur au 28ème jour / % d'augmentation de survie (pour les animaux décédés): same regimen; for Durée de survie des souris: souris Swiss, 2 x 10^6 malignant cells i.p., 4 days; for % d'augmentation de survie (pour les animaux décédés): versus controls; for % d'augmentation: increase of survival versus controls
Method: Les composés de l'invention ont été soumis à des essais pharmacologiques montrant leur intérêt dans le domaine antitumoral. L'action des composés sur le développement de la tumeur ascitique d'Ehrlich chez la Souris a été observée.
Les essais se font sur des lots de 5 ou 6 souris Swiss de 12 à 15 g. Chaque animal reçoit 2 x 10^6 cellules malignes par voie péritonéale. Le traitement débute 16 h après l'inoculation et consiste en 2 injections par jour de 0,75 ml d'une solution de dinucléotide à 2 mg/ml dans le péritoine c'est-à-dire 3 mg par animal et par jour ou 200 mg/kg. La durée du traitement est de 4 jours.
Les dinucléotides,composés de l'invention, ont été testés de la manière indiquée.

[2] = system: virus Herpès; test: Herpes virus yield in treated cell cultures (TCID50 titre); format: cell-based; details: untreated control harvest titre 10^5,625; concentration not given
Text: L'activité des trois composés de l'invention Ara A-p-Ara A, Ara A-p-Ara C et Ara C-p-Ara A a également été démontrée sur le virus Herpès.
La récolte virale témoin (cellules non traitées) a un titre TCI D50 (tissue culture infecting dosis) de 10^5,625.
Les cultures traitées par les composés de l'invention ont les titres suivants • Ara A-p-Ara A TCID50 = 10^3,16 • ^Ara A^-p-Ara C TCID50 ^< 102 • Ara C-p-Ara A TCID50 ≤ 10^2,5

[3] = Tableau 1, dinucleotide 200 mg/kg per day i.p. in 2 injections, start 16 h after inoculation, controls 16,54 j (Ara A, Ara C) and 18 j (Ara A-p-Ara C)
[4] = Tableau 2, dinucleotide 200 mg/kg per day i.p., controls 14,67 j

## Nc1ncnc2c1ncn2[C@@H]1O[C@H](CO)[C@@H](O)[C@@H]1O [Ara A, 9-β-D-arabinofuranosyl-adénine]
[1]; Tableau 1
  Nombre d'animaux sans tumeur au 28ème jour: 0
  % d'augmentation de survie (pour les animaux décédés): 48,5%
[1]; [3]
  Durée de survie des souris: 24,5 j
[1]; Tableau 2
  % d'augmentation: 39,75%
[1]; [4]
  Durée de survie des souris: 20,5 j

## Nc1ccn([C@@H]2O[C@H](CO)[C@@H](O)[C@@H]2O)c(=O)n1 [Ara C, 1-β-D-arabinofuranosyl-cytosine]
[1]; Tableau 1
  Nombre d'animaux sans tumeur au 28ème jour: 0
  % d'augmentation de survie (pour les animaux décédés): 94,4%
[1]; [3]
  Durée de survie des souris: 32 J

## Nc1ccn([C@@H]2O[C@H](COP(=O)(O)O[C@H]3[C@H](O)[C@H](n4cnc5c(N)ncnc54)O[C@@H]3CO)[C@@H](O)[C@@H]2O)c(=O)n1 [Ara A-p-Ara C]
[1]; Tableau 1
  Nombre d'animaux sans tumeur au 28ème jour: 4/5
  % d'augmentation de survie (pour les animaux décédés): > 100%
[1]; [3]
  Durée de survie des souris: > 36 J
[2]
  TCID50 (titre of viral harvest of treated cultures): < 102

## Nc1ncnc2c1ncn2[C@@H]1O[C@H](COP(=O)(O)O[C@H]2[C@H](O)[C@H](n3cnc4c(N)ncnc43)O[C@@H]2CO)[C@@H](O)[C@@H]1O [Ara A-p-Ara A]
[1]; Tableau 2
  % d'augmentation: 44,3%
[1]; [4]
  Durée de survie des souris: 21,17 j
